The text below walks through data of PMC7407158, “Reprogramming of the Antibacterial Drug Vancomycin Results in Potent Antiviral Agents Devoid of Antibacterial Activity” (Pharmaceuticals, 2020).

In one series the test system is B. subtilis ATCC 6633. Kind of series: Broth microdilution MIC, B. subtilis ATCC 6633. The format is cell-based. The settings on record: for MIC: Bacillus subtilis, ATCC6633, read-out: In Vitro MIC. On the procedure:
(§1) Antibacterial tests were carried out by the broth microdilution method on a panel of eight Gram-positive bacterial strains, using vancomycin and teicoplanin as reference compounds.

The subject of series [1] is S. aureus MSSA ATCC 29213. Briefly: Broth microdilution MIC, S. aureus MSSA ATCC 29213. The format is cell-based. The following applies: for MIC: Staphylococcus aureus, read-out: In Vitro MIC. On the procedure: as §1
In series [2] the test system is S. aureus MRSA ATCC 33591. Briefly: Broth microdilution MIC, S. aureus MRSA ATCC 33591. It is filed as cell-based. The settings on record: for MIC: Staphylococcus aureus, read-out: In Vitro MIC. On the procedure: as §1
In series [3] the test system is S. epidermidis ATCC 35984. Briefly: Broth microdilution MIC, S. epidermidis ATCC 35984. The format is cell-based. The settings on record: for MIC: Staphylococcus epidermidis, ATCC35984, read-out: In Vitro MIC. On the procedure: as §1
A further series relates to S. epidermidis mecA. Kind of series: Broth microdilution MIC, S. epidermidis mecA. The settings on record: for MIC: Staphylococcus epidermidis, read-out: In Vitro MIC. The format is cell-based. Here is the method: as §1
The next series deals with E. faecalis ATCC 29212. Kind of series: Broth microdilution MIC, E. faecalis ATCC 29212. The format is cell-based. The settings on record: for MIC: Enterococcus faecalis, ATCC29212, read-out: In Vitro MIC. Here is the method:
as §1

A further series has as its system E. faecalis 15,376 VanA. Briefly: Broth microdilution MIC, E. faecalis 15,376 VanA. It is filed as cell-based. The following applies: for MIC: Enterococcus faecalis, read-out: In Vitro MIC. Here is the method: as §1
In series [4] the test system is E. faecalis ATCC 51,299 VanB. Kind of series: Broth microdilution MIC, E. faecalis ATCC 51,299 VanB. The settings on record: for MIC: Enterococcus faecalis, ATCC51, read-out: In Vitro MIC. The format is cell-based. Here is the method: as §1
The test system of another series is influenza A or B viruses. Briefly: Anti-influenza virus activity in MDCK cells, MTS assay, overall for the three influenza A or B viruses. The format is cell-based, Influenza A and B viruses.
The next series relates to MDCK cells. The settings on record: read-out: CC50 (50% cytotoxic concentration), mock-infected, MTS cell viability assay, three days.
The subject of series [5] is Influenza A/H1N1 (A/Ned/378/05). Kind of series: Influenza CPE reduction in MDCK cells, MTS assay, A/H1N1. The following applies: Influenza A virus, H1N1; MDCK cells; A/Ned/378/05; inhibition of virus-induced CPE by MTS assay; read-out: Antiviral EC50 Influenza A/H1N1. The format is cell-based.
Series [6] relates to Influenza A/H3N2 (A/Victoria/361/11). Kind of series: Influenza CPE reduction in MDCK cells, MTS assay, A/H3N2. The format is cell-based. The following applies: Influenza A virus, H3N2; MDCK cells; A/Victoria/361/11; inhibition of virus-induced CPE by MTS assay; read-out: Antiviral EC50 Influenza A/H3N2.
For series [7], the system named is Influenza B (B/Ned/537/05). Briefly: Influenza CPE reduction in MDCK cells, MTS assay, influenza B. The format is cell-based. The following applies: Influenza B virus, inhibition of virus-induced CPE by MTS assay, read-out: Antiviral EC50 Influenza B.
A short description of series [8]: in vitro. The settings on record: dog.
Series [9] deals with herpes simplex virus type 1 (HSV-1 strain KOS). Kind of series: CPE reduction, MTS assay, HSV-1 in HEL cells. The following applies: Human alphaherpesvirus 1, protection against virus-induced CPE, read-out: Antiviral EC50 HSV-1. It is filed as cell-based.
In series [10] the test system is herpes simplex virus type 2 (HSV-2, strain G). Kind of series: CPE reduction, MTS assay, HSV-2 in HEL cells. The format is cell-based. The settings on record: Human alphaherpesvirus 2, protection against virus-induced CPE, read-out: Antiviral EC50 HSV-2.
The subject of series [11] is vaccinia virus (strain Lederle). Briefly: microbe, parasite or virus in culture. It is filed as cell-based. The settings on record: Orthopoxvirus vaccinia, HEL, read-out: Antiviral EC50 Vaccinia Virus.
A short description of series [12]: in vitro. The following applies: human.
The nature of series [13]: in vitro. The settings on record: human. This is another data set of the same source.
A short description of series [14]: in vitro. The settings on record: African green monkey.

pEC50: −log10 of the molar value. Converted amounts (≈) assume the structure as drawn.

For `CCCCSC1=C(SCCCC)C(=O)N(CCOCCOCCOCCOCc2cn(CCNC(=O)[C@H]3NC(=O)[C@H]4NC(=O)[C@H](NC(=O)[C@@H]5NC(=O)[C@H](CC(N)=O)NC(=O)[C@H](N)[C@H](O)c6ccc(c(Cl)c6)Oc6cc5cc(c6O)Oc5ccc(cc5Cl)[C@H]4O)c4ccc(O)c(c4)-c4c(O)cc(O)cc43)nn2)C1=O` [Compound 12], the minimal inhibitory concentration (MIC) in the series on B. subtilis ATCC 6633 was 256 µg/mL (≈ 163 µM); in series [1], 256 µg/mL (≈ 163 µM); in [2], 256 µg/mL (≈ 163 µM); in series [3] it was 128 µg/mL (≈ 81.4 µM); in the series on S. epidermidis mecA, 256 µg/mL (≈ 163 µM); in the series on E. faecalis ATCC 29212, 128 µg/mL (≈ 81.4 µM). The MIC (in the series on E. faecalis 15,376 VanA; in series [4]) was 256 µg/mL (≈ 163 µM) in each case. Also, the “anti-influenza virus activity (in words)” value in the series on influenza A or B viruses is recorded as “only slightly active”. The CC50 in the series with MDCK cells came out at 100 µM.
Turning to `CCCCCCS(=O)(=O)NCCNC(=O)[C@H]1NC(=O)[C@H]2NC(=O)[C@H](NC(=O)[C@@H]3NC(=O)[C@H](CC(N)=O)NC(=O)[C@H](N)[C@H](O)c4ccc(c(Cl)c4)Oc4cc3cc(c4O)Oc3ccc(cc3Cl)[C@H]2O)c2ccc(O)c(c2)-c2c(O)cc(O)cc21` [Compound 13], the minimum inhibitory concentration (MIC) in the series with B. subtilis ATCC 6633 came out at 256 µg/mL (≈ 212 µM); in [1], 256 µg/mL (≈ 212 µM); in series [2] it was 256 µg/mL (≈ 212 µM); in series [3], 128 µg/mL (≈ 106 µM); with S. epidermidis mecA it was 128 µg/mL (≈ 106 µM); in the series on E. faecalis ATCC 29212, 64 µg/mL (≈ 53 µM). Moreover, the minimal inhibitory concentration (MIC) in the series on E. faecalis 15,376 VanA was found to be 256 µg/mL (≈ 212 µM); in series [4], 128 µg/mL (≈ 106 µM). The pEC50 was 4.47 in series [5], 4.85 in series [6] and < 4.00 in series [7]. For the same compound, in the series on influenza A or B viruses, the “anti-influenza virus activity (in words)” value is listed as “only slightly active”. For the same compound, in the series “in vitro [8]”, the CC50 is > 100 µM.
On to `Nc1nc(O)c2ncn(COC(CO)CO)c2n1` [Ganciclovir], for which the pEC50 in series [9] is 7.00; in [10], 7.52; in series [11], < 4.00. Besides, the CC50 in “in vitro [12]”, in the series “in vitro [13]” and in “in vitro [14]” was > 100 µM in each case.
Regarding `CN[C@H](CC(C)C)C(=O)N[C@H]1C(=O)N[C@@H](CC(N)=O)C(=O)N[C@H]2C(=O)N[C@H]3C(=O)N[C@H](C(=O)N[C@H](C(=O)O)c4cc(O)cc(O)c4-c4cc3ccc4O)[C@H](O)c3ccc(c(Cl)c3)Oc3cc2cc(c3O[C@@H]2O[C@H](CO)[C@@H](O)[C@H](O)[C@H]2O[C@H]2C[C@](C)(N)[C@H](O)[C@H](C)O2)Oc2ccc(cc2Cl)[C@H]1O` [VAN, vancomycin], the minimum inhibitory concentration (MIC) in the series with B. subtilis ATCC 6633 turned out to be 0.5 µg/mL (≈ 0.345 µM); in series [1], 0.5 µg/mL (≈ 0.345 µM); in [2] it was 0.5 µg/mL (≈ 0.345 µM); in series [3] it was 2 µg/mL (≈ 1.38 µM); with S. epidermidis mecA, 4 µg/mL (≈ 2.76 µM); in the series with E. faecalis ATCC 29212, 1 µg/mL (≈ 0.69 µM). For the same compound, the figures for the MIC (with E. faecalis 15,376 VanA; in series [4]) were 256 µg/mL (≈ 177 µM) and 128 µg/mL (≈ 88.3 µM), respectively.
Regarding `CC(=O)N[C@H]1[C@H]([C@H](O)[C@H](O)CO)OC(C(=O)O)=C[C@@H]1N=C(N)N` [Zanamivir, reference compound], the pEC50 in series [5] was 6.40; in series [6], 5.05; in series [7], 5.35. Besides, the CC50 in “in vitro [8]” was > 100 µM.
As to teicoplanin [reference compound], the “In Vitro MIC” value in the series on B. subtilis ATCC 6633 (B. subtilis ATCC 6633, broth microdilution) is 0.5 µg/mL; in series [1] (S. aureus MSSA ATCC 29213, broth microdilution), 0.5 µg/mL; in series [2] (S. aureus MRSA ATCC 33591, broth microdilution), 0.5 µg/mL; in [3] (S. epidermidis ATCC 35984, broth microdilution), 4 µg/mL; in the series on S. epidermidis mecA (S. epidermidis mecA, broth microdilution), 16 µg/mL; in the series on E. faecalis ATCC 29212 (E. faecalis ATCC 29212, broth microdilution), 1 µg/mL. For the same compound, the “In Vitro MIC” value in the series on E. faecalis 15,376 VanA (E. faecalis 15,376 VanA, broth microdilution) was found to be 256 µg/mL; in [4] (E. faecalis ATCC 51,299 VanB, broth microdilution), 0.5 µg/mL.
